Activity and IC50 data for nine compounds are collected here from ChEMBL document CHEMBL1811754, “Sesquiterpene and xanthone derivatives from the sea fan-derived fungus Aspergillus sydowii PSU-F154” (J Nat Prod, 2011).

The source made the active and inactive calls. The calls are words filed in the database; no cut-off is given here.

This experiment has as its system Radical scavenging activity. The experiment in a line: Antioxidant activity assessed as DPPH radical scavenging activity after 30 mins by spectrophotometry. The experiment is classed as functional. On the technique in general: DPPH is a stable violet radical that fades when it is reduced.
On to `COC(=O)c1cccc2oc3cc(CO)cc(O)c3c(=O)c12`, for which the result was inactive.

Regarding `CO[C@@](C)(CCCC(C)C)c1ccc(C(=O)O)cc1O`, the result was inactive.

`COC(=O)c1cccc2oc3cc(C)cc(O)c3c(=O)c12`: the outcome was inactive.

Take `COC(=O)[C@@]1(O)c2c(oc3cc(C)cc(O)c3c2=O)CC[C@H]1O`: the outcome was inactive.

Turning to `Cc1c(CCC(C)C)oc2cc(C(=O)O)ccc12`, the result was inactive.

In the case of `COC(=O)c1c(O)ccc2oc3cc(CO)cc(O)c3c(=O)c12`, the outcome was inactive.

As to `COC(=O)[C@@H]1c2c(oc3cc(CO)cc(O)c3c2=O)C=C[C@H]1O`, the concentration for half-maximal inhibition (IC50) was 17 µM.

As to `O=C1N[C@@H](Cc2c[nH]c3ccccc23)C(=O)N[C@H]1Cc1ccccc1`, the outcome was inactive.

For `C/C(=C\CCC(C)C)c1ccc(CO)cc1O`, the result was inactive.

Usually IC50 stands for the concentration at which inhibition is half-maximal.
